Legend:
[1] = biological target: Muscarinic acetylcholine receptor; test: Displacement of [3H]-OXO-M (oxotremorine-M) from the central muscarinic receptor sites of the rat brain membranes; assay type: cell membranes, Membrane
[2] = biological target: T1, Muscarinic acetylcholine receptor M1 (Rattus norvegicus, UniProt P08482); test: Displacement of [3H]-Pz (pirenzepine) from the muscarinic receptor M1 of the rat hippocampus; assay type: tissue-based
T1 sequence (P08482 whole entry): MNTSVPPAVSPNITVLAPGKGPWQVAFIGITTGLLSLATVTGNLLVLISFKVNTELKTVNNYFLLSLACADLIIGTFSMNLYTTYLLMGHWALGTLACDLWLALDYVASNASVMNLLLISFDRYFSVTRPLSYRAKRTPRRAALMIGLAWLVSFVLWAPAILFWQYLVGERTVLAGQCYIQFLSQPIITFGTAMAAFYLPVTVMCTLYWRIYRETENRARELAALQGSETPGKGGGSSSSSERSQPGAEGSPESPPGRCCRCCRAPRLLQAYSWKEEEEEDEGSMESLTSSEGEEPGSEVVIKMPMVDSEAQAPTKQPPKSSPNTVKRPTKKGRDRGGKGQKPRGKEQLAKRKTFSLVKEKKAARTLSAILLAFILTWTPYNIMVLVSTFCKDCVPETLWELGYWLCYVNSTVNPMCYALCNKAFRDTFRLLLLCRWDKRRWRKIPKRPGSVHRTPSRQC

[3] = organism: Oryctolagus cuniculus; test: Percent maximum inhibition of the twitch response in the electrically stimulated rabbit vas deferens was determined.; assay type: functional
[4] = organism: Oryctolagus cuniculus; test: Compound was evaluated for the inhibition of the twitch response in the electrically stimulated rabbit vas deferens; assay type: functional

**Q.** With `CCCCOc1nsnc1C1=CCCN(C)C1` as the compound, how does the IC50 [1] read?
**A.** Its IC50 is 1.4 nM.

**Q.** Which results are given for `CCCCCCOc1nscc1C1=CCCN(C)C1`?
**A.** IC50 [1]: > 900 nM; IC50 [2]: 715 nM; Inhibition [3]: 43%

**Q.** For `CCCCOc1noc(C)c1C1=CCCN(C)C1`, which IC50 [1] is on record?
**A.** The IC50 was 759 nM.

**Q.** `CCCCCCOc1cscc1C1=CCCN(C)C1` was tested. Which IC50 [1] did it give?
**A.** The IC50 was greater than 900 nM.

**Q.** And the IC50 [2]?
**A.** Its IC50 is 663 nM.

**Q.** What about the IC50 [4] of the same compound?
**A.** The IC50 was 39000 nM.

**Q.** And the Inhibition [3]?
**A.** The Inhibition was 93%.

**Q.** With `CCCCOc1nscc1C1=CCCN(C)C1` as the compound, how does the IC50 [1] read?
**A.** The IC50 was 544 nM.

**Q.** And the IC50 [2]?
**A.** Its IC50 is 565 nM.

**Q.** What about the Inhibition [3] of the same compound?
**A.** Its Inhibition is 18%.

**Q.** Which IC50 [1] does the source give for `CCCCOc1cscc1C1=CCCN(C)C1` here?
**A.** The IC50 was 477 nM.

**Q.** What about the IC50 [2] of the same compound?
**A.** The IC50 was 369 nM.

**Q.** And the Inhibition [3]?
**A.** The Inhibition was 18%.

**Q.** Which IC50 [1] does the source give for `C[N+](C)(C)CC#CCOC(=O)Nc1cccc(Cl)c1.[Cl-]` here?
**A.** The IC50 was 355 nM.

**Q.** And the Inhibition [3]?
**A.** Its Inhibition is 91%.

**Q.** With `CCCCCCOc1nonc1C1=CCCN(C)C1` as the compound, how does the IC50 [1] read?
**A.** Its IC50 is 70 nM.

**Q.** And the Inhibition [3]?
**A.** Its Inhibition is 47%.

**Q.** How did the IC50 [1] turn out when `CCCCOc1nonc1C1=CCCN(C)C1` was run?
**A.** Its IC50 is 24 nM.

**Q.** What about the Inhibition [3] of the same compound?
**A.** Its Inhibition is 12%.

**Q.** With `CCCCCCOc1nsnc1C1=CCCN(C)C1` [XANOMELINE] as the compound, how does the Inhibition [3] read?
**A.** Its Inhibition is 88%.

— ChEMBL document CHEMBL1126444, “Synthesis and structure-activity relationships of heterocyclic analogues of the functional M1 selective muscarinic agonist hexyloxy-TZTP” (Bioorg Med Chem Lett, 1992)
